Reference: PMC10647589, “Heterogeneous Cellular Response of Primary and Metastatic Human Gastric Adenocarcinoma Cell Lines to Magnoflorine and Its Additive Interaction with Docetaxel” (International Journal of Molecular Sciences, 2023)

How the values were obtained:
Assay type in all cases: cell-based
ACC-201 human GC cells = assay: Cell cycle analysis (PI, flow cytometry); details: 72 h
Protocol: (§1) Human GC cells ACC-201, AGS, MKN-74 and NCI-N87 were seeded in 6-well plates and allowed to adhere overnight. On the following day, the growth medium was removed, and the cells were treated with indicated concentrations of MGN (10–40 µg/mL) for 72 h. After that, the cells were washed with phosphate-buffered saline (PBS) and fixed in 70% ethanol at 4 °C overnight. Then, the cells were washed with PBS and stained with propidium iodide, utilizing PI/RNase Staining Buffer (BD Biosciences, Heidelberg, Germany) for 15 min in the dark. Cell distribution in different stages of the cell cycle was performed through the use of the FACS CaliburTM flow cytometer (BD Biosciences, Mountain View, CA, USA).

AGS human GC cells = assay: Cell cycle analysis (PI, flow cytometry); details: 72 h
Protocol: as §1

MKN-74 human GC cells = assay: Cell cycle analysis (PI, flow cytometry); details: 72 h
Protocol: as §1

NCI-N87 human GC cells = assay: Cell cycle analysis (PI, flow cytometry); details: 72 h
Protocol: as §1

[1] = tested on: human GC cells ACC-201, AGS, MKN-74 and NCI-N87; assay: BrdU incorporation assay; details: MGN 2–75 μg/mL, 72 h, four GC cell lines
Protocol: The human GC cells ACC-201, AGS, MKN-74 and NCI-N87 were placed in 96-well plates and allowed to adhere overnight. On the following day, the growth medium was replaced with fresh medium, and the cells were exposed to a series of tested MGN dilutions (2.0–75 µg/mL) for 72 h. Cell proliferation was quantified according to the manufacturer’s instruction, Cell Proliferation ELISA, BrdU (colorimetric) (Biorbyt, Cambridge, UK). Briefly, BrdU reagent was added to the medium, followed by Fixative/Denaturing Solution for 30 min at room temperature. Incorporated BrdU in the place of thymidine in the cell’s DNA under division was detected using mouse monoclonal anti-BrdU for 1 h at room temperature, followed by horseradish peroxidase (HRP)-linked goat anti-mouse IgG secondary antibody and tetramethylbenzidine (a HRP substrate) for 30 min at room temperature. The absorbance was measured at 450 nm using Infinite M200 Pro microplate reader (Tecan, Männedorf, Switzerland). Results are presented as a percentage of BrdU incorporation vs. control cells (indicated as 100%).

`COc1ccc2c(c1O)-c1c(O)c(OC)cc3c1[C@H](C2)[N+](C)(C)CC3` [MGN, magnoflorine] was tested, and the “cells in G1 phase” value (ACC-201 human GC cells; ACC-201, MGN 10 µg/mL) was 62.76% ± 2.434, the “cells in G2 phase” value (ACC-201 human GC cells; ACC-201, MGN 10 µg/mL) was 9.96% ± 3.707 and the “cells in S phase” value (ACC-201 human GC cells; ACC-201, MGN 10 µg/mL) was 8.74% ± 3.423. The “cells in subG1 phase” value (ACC-201 human GC cells; ACC-201, MGN 10 µg/mL) was 18.52% ± 1.414, the “cells in G1 phase” value (ACC-201 human GC cells; ACC-201, MGN 20 µg/mL) was 57.23% ± 2.112 and the “cells in G2 phase” value (ACC-201 human GC cells; ACC-201, MGN 20 µg/mL) was 8.34% ± 4.237. The “cells in S phase” value (ACC-201 human GC cells; ACC-201, MGN 20 µg/mL) was 8.33% ± 1.647, the “cells in subG1 phase” value (ACC-201 human GC cells; ACC-201, MGN 20 µg/mL) was 26.06% ± 1.399 and the “cells in G1 phase” value (ACC-201 human GC cells; ACC-201, MGN 30 µg/mL) was 49.55% ± 1.820. For the same compound, the “cells in G2 phase” value (ACC-201 human GC cells; ACC-201, MGN 30 µg/mL) was 5.87% ± 5.399, the “cells in S phase” value (ACC-201 human GC cells; ACC-201, MGN 30 µg/mL) was 6.16% ± 1.340 and the “cells in subG1 phase” value (ACC-201 human GC cells; ACC-201, MGN 30 µg/mL) was 38.50% ± 1.886. The “cells in G1 phase” value (ACC-201 human GC cells; ACC-201, MGN 40 µg/mL) was 39.27% ± 3.408, the “cells in G2 phase” value (ACC-201 human GC cells; ACC-201, MGN 40 µg/mL) was 3.74% ± 1.615 and the “cells in S phase” value (ACC-201 human GC cells; ACC-201, MGN 40 µg/mL) was 5.61% ± 1.874. For the same compound, the “cells in subG1 phase” value (ACC-201 human GC cells; ACC-201, MGN 40 µg/mL) was 51.43% ± 2.072, the “cells in G1 phase” value (AGS human GC cells; MGN 10 µg/mL) was 58.09% ± 8.195 and the “cells in G2 phase” value (AGS human GC cells; MGN 10 µg/mL) was 23.35% ± 12.110. The “cells in S phase” value (AGS human GC cells; MGN 10 µg/mL) was 17.62% ± 3.599, the “cells in subG1 phase” value (AGS human GC cells; MGN 10 µg/mL) was 1.19% ± 2.437 and the “cells in G1 phase” value (AGS human GC cells; MGN 20 µg/mL) was 53.06% ± 12.980. The “cells in G2 phase” value (AGS human GC cells; MGN 20 µg/mL) was 24.06% ± 16.000, the “cells in S phase” value (AGS human GC cells; MGN 20 µg/mL) was 21.07% ± 2.593 and the “cells in subG1 phase” value (AGS human GC cells; MGN 20 µg/mL) was 2.17% ± 2.519. The “cells in G1 phase” value (AGS human GC cells; MGN 30 µg/mL) was 43.08% ± 14.330, the “cells in G2 phase” value (AGS human GC cells; MGN 30 µg/mL) was 31.77% ± 17.630 and the “cells in S phase” value (AGS human GC cells; MGN 30 µg/mL) was 21.55% ± 2.265. For the same compound, the “cells in subG1 phase” value (AGS human GC cells; MGN 30 µg/mL) was 2.17% ± 3.000, the “cells in G1 phase” value (AGS human GC cells; MGN 40 µg/mL) was 38.15% ± 13.350 and the “cells in G2 phase” value (AGS human GC cells; MGN 40 µg/mL) was 39.34% ± 15.720. The “cells in S phase” value (AGS human GC cells; MGN 40 µg/mL) was 19.89% ± 2.653, the “cells in subG1 phase” value (AGS human GC cells; MGN 40 µg/mL) was 2.98% ± 2.448 and the “effect on cell cycle progression” value (AGS human GC cells; MGN 10–40 µg/mL) was “induced the G2/M phase arrest”. The “cells in G1 phase” value (MKN-74 human GC cells; MKN-74, MGN 10 µg/mL) was 69.07% ± 1.886, the “cells in G2 phase” value (MKN-74 human GC cells; MKN-74, MGN 10 µg/mL) was 16.23% ± 1.928 and the “cells in S phase” value (MKN-74 human GC cells; MKN-74, MGN 10 µg/mL) was 13.36% ± 0.622. The “cells in subG1 phase” value (MKN-74 human GC cells; MKN-74, MGN 10 µg/mL) was 1.60% ± 2.688, the “cells in G1 phase” value (MKN-74 human GC cells; MKN-74, MGN 20 µg/mL) was 73.81% ± 4.227 and the “cells in G2 phase” value (MKN-74 human GC cells; MKN-74, MGN 20 µg/mL) was 14.14% ± 2.076. For the same compound, the “cells in S phase” value (MKN-74 human GC cells; MKN-74, MGN 20 µg/mL) was 9.97% ± 1.867, the “cells in subG1 phase” value (MKN-74 human GC cells; MKN-74, MGN 20 µg/mL) was 2.28% ± 2.818 and the “cells in G1 phase” value (MKN-74 human GC cells; MKN-74, MGN 30 µg/mL) was 65.90% ± 3.533. The “cells in G2 phase” value (MKN-74 human GC cells; MKN-74, MGN 30 µg/mL) was 22.92% ± 2.455, the “cells in S phase” value (MKN-74 human GC cells; MKN-74, MGN 30 µg/mL) was 7.72% ± 1.822 and the “cells in subG1 phase” value (MKN-74 human GC cells; MKN-74, MGN 30 µg/mL) was 3.59% ± 2.787. For the same compound, the “cells in G1 phase” value (MKN-74 human GC cells; MKN-74, MGN 40 µg/mL) was 50.20% ± 5.303, the “cells in G2 phase” value (MKN-74 human GC cells; MKN-74, MGN 40 µg/mL) was 35.94% ± 6.691 and the “cells in S phase” value (MKN-74 human GC cells; MKN-74, MGN 40 µg/mL) was 8.25% ± 2.280. The “cells in subG1 phase” value (MKN-74 human GC cells; MKN-74, MGN 40 µg/mL) was 5.60% ± 1.002, the “effect on cell cycle progression” value (MKN-74 human GC cells; MKN-74, MGN 10 and 20 µg/mL vs. 40 µg/mL) was “induced G1/S or G2/M phase cell cycle arrest” and the “cells in G1 phase” value (NCI-N87 human GC cells; NCI-N87, MGN 10 µg/mL) was 69.39% ± 3.658. The “cells in G2 phase” value (NCI-N87 human GC cells; NCI-N87, MGN 10 µg/mL) was 16.52% ± 2.770, the “cells in S phase” value (NCI-N87 human GC cells; NCI-N87, MGN 10 µg/mL) was 11.81% ± 3.808 and the “cells in subG1 phase” value (NCI-N87 human GC cells; NCI-N87, MGN 10 µg/mL) was 2.41% ± 2.189. The “cells in G1 phase” value (NCI-N87 human GC cells; NCI-N87, MGN 20 µg/mL) was 70.17% ± 2.905, the “cells in G2 phase” value (NCI-N87 human GC cells; NCI-N87, MGN 20 µg/mL) was 15.56% ± 2.419 and the “cells in S phase” value (NCI-N87 human GC cells; NCI-N87, MGN 20 µg/mL) was 10.44% ± 6.685. The “cells in subG1 phase” value (NCI-N87 human GC cells; NCI-N87, MGN 20 µg/mL) was 3.93% ± 2.591, the “cells in G1 phase” value (NCI-N87 human GC cells; NCI-N87, MGN 30 µg/mL) was 67.45% ± 3.535 and the “cells in G2 phase” value (NCI-N87 human GC cells; NCI-N87, MGN 30 µg/mL) was 16.21% ± 1.874. The “cells in S phase” value (NCI-N87 human GC cells; NCI-N87, MGN 30 µg/mL) was 10.12% ± 7.739, the “cells in subG1 phase” value (NCI-N87 human GC cells; NCI-N87, MGN 30 µg/mL) was 6.33% ± 2.772 and the “cells in G1 phase” value (NCI-N87 human GC cells; NCI-N87, MGN 40 µg/mL) was 64.37% ± 3.651. The “cells in G2 phase” value (NCI-N87 human GC cells; NCI-N87, MGN 40 µg/mL) was 17.06% ± 2.426, the “cells in S phase” value (NCI-N87 human GC cells; NCI-N87, MGN 40 µg/mL) was 9.24% ± 5.603 and the “cells in subG1 phase” value (NCI-N87 human GC cells; NCI-N87, MGN 40 µg/mL) was 9.47% ± 1.163. For the same compound, the “effect on cell cycle progression” value (NCI-N87 human GC cells; NCI-N87, MGN 10–40 µg/mL) was “Minor changes in cell cycle progression” and the “BrdU-labeled DNA (proliferation)” value [1] was “dose-dependent decrease”.
